Assay results reported in publication PMC12609579, “Acute Myeloid Leukemia: A Key Role of DGKα and DGKζ in Cell Viability” (Cells, 2025).

How the values were obtained:
THP-1 cells [1] = test: alamarBlue cell viability assay, THP-1; type: cell-based; details: Homo sapiens
Experimental: (§1) The alamarBlue assay was performed to assess cell viability in presence of chemical inhibitors. A total of 50,000 cells per well were seeded in a 96-wells plate in a volume of 100 μL of complete medium together with 10 μL of 10× concentrated inhibitor solution and then incubated for either 24 or 72 h. Each experimental condition was performed in technical quadruplicates, using cells treated with equal amounts of DMSO vehicle as control and medium alone as background. After incubation, alamarBlue was added to each well at a final concentration of 0.15 mg/mL. The fluorescence of the samples was measured 24 h later using a Spark 10 M Multimode Plate Reader (Tecan, Switzerland) with excitation and emission wavelengths of 535 nm and 590 nm, respectively. For dose–response curve fitting, fluorescence values were normalized according to the following formula:Viability (%) = [(sample mean fluorescence)/(DMSO control mean fluorescence)] ∗ 100
(§2) Data are the results of at least five independent experiments analyzed with GraphPad Prism 10 as [inhibitor] vs. normalized response curve (variable slope, after manual outlier removal).

HL-60 cells = test: alamarBlue cell viability assay, HL-60; type: cell-based, human
Experimental: as §1, §2

HEL cells [2] = test: alamarBlue cell viability assay, HEL; type: cell-based, human
Experimental: as §1, §2

K562 cells = test: alamarBlue cell viability assay, K562; type: cell-based, human
Experimental: as §1, §2

THP-1 cells [3] = test: Annexin V-FITC/7AAD apoptosis/necrosis flow cytometry, THP-1; type: cell-based, human; details: THP-1, 24 h
Experimental: (§3) To determine the type of cell death, apoptotic and necrotic cells were detected by flow cytometry using the Apoptosis Detection Kit Annexin V-FITC (Invitrogen, Carlsbad, CA, USA). For each sample, 500,000 cells, pretreated for 24 h, were stained according to manufacturer’s instructions, using 7-aminoactinomycin D (7AAD) instead of propidium iodide. Samples were analyzed on a BD FACS Symphony A5 flow cytometer (Franklin Lakes, NJ, USA) using BD FACSDiva 9.1 software. Data were gated based on FSC-A vs. FSC-H to exclude cell doublets and FSC-A vs. SSC-A to exclude debris. Different populations were identified as: live (Annexin V− and 7AAD−), necrotic (Annexin− and 7AAD+), early apoptotic (Annexin V+ and 7AAD−) and late apoptotic (Annexin+ and 7AAD+). Data are shown as mean ± SD of at least three independent experiments analyzed by GraphPad Prism 10 (control vs. [inhibitor]).

HEL cells [4] = test: Annexin V-FITC/7AAD apoptosis/necrosis flow cytometry, HEL; type: cell-based, human; details: 24 h
Experimental: as §3

[5] = tested on: bone marrow mononuclear cells from primary AML samples; set-up: method as in PMID 37392305; details: 40 μM; cited from earlier work
Kasumi-1 = tested on: Kasumi-1; set-up: method as in PMID 37392305; details: xenograft mouse models injected with Kasumi-1; cited from earlier work
[6] = biological target: serotonin 5-HT2A receptor; details: cited from earlier work
[7] = biological target: serotonin 5-HT2C receptor; set-up: method as in PMID 2860558; details: cited from earlier work
[8] = concentration close to IC50, representative plot

SMILES: Cc1nc2sccn2c(=O)c1CCN1CCC(=C(c2ccc(F)cc2)c2ccc(F)cc2)CC1 [ritanserin]
- IC50 (THP-1 cells [1]; THP-1, 24 h, THP-1, 24 h treatment then alamarBlue 24 h): 37 ± 1.4 µM
- IC50 (THP-1 cells [1]; THP-1, THP-1, 72 h treatment then alamarBlue 24 h): 32 ± 1.5 µM
- IC50 (HL-60 cells; HL-60, 24 h treatment then alamarBlue 24 h): ~38 µM
- IC50 (HL-60 cells; Homo sapiens, HL-60, 24 h, HL-60, 24 h treatment then alamarBlue 24 h): 37.6 ± 1.5 µM
- IC50 (HL-60 cells; Homo sapiens, HL-60, HL-60, 72 h treatment then alamarBlue 24 h): 25.3 ± 0.9 µM
- IC50 (HEL cells [2]; 24 h treatment then alamarBlue 24 h): ~49 µM
- IC50 (HEL cells [2]; Homo sapiens, 24 h, 24 h treatment then alamarBlue 24 h): 49.2 ± 2 µM
- IC50 (HEL cells [2]; Homo sapiens, 72 h treatment then alamarBlue 24 h): 29.6 ± 1 µM
- IC50 (K562 cells; Homo sapiens, K562, 24 h, K562, 24 h treatment then alamarBlue 24 h): 70.4 ± 2.2 µM
- IC50 (K562 cells; Homo sapiens, K562, K562, 72 h treatment then alamarBlue 24 h): 42.5 ± 1.8 µM
- IC50 (K562 cells; K562, 24 h treatment then alamarBlue 24 h): ~70 µM
- Early apoptotic (Annexin V+ 7AAD-) (THP-1 cells [3]; [8]): 14.4%
- Late apoptotic (Annexin+ 7AAD+) (THP-1 cells [3]; [8]): 2.2%
- Live cells (Annexin V- 7AAD-) (THP-1 cells [3]; [8]): 83.2%
- Necrotic (Annexin- 7AAD+) (THP-1 cells [3]; [8]): 0.2%
- modality of cell death (THP-1 cells [3]; concentration near IC50): early apoptosis
- Early apoptotic (Annexin V+ 7AAD-) (HEL cells [4]; [8]): 12.2%
- Late apoptotic (Annexin+ 7AAD+) (HEL cells [4]; [8]): 2.3%
- Live cells (Annexin V- 7AAD-) (HEL cells [4]; [8]): 82.5%
- Necrotic (Annexin- 7AAD+) (HEL cells [4]; [8]): 2.9%
- modality of cell death (HEL cells [4]; concentration near IC50): early apoptosis
- apoptosis, % of cells [5]: up to 70%
- survival (Kasumi-1): improved survival
- tumor burden (Kasumi-1): significant reduction
- Ki [6]: 0.00045 µM
- Ki [7]: 0.00071 µM
